From ChEMBL document CHEMBL2417368, “Structure-based discovery of novel amide-containing nicotinamide phosphoribosyltransferase (nampt) inhibitors” (J Med Chem, 2013)

Legend:
[1] = test system: A2780; experiment: cells; settings: Homo sapiens, A2780, 72 h
[2] = Metabolic stability in human liver microsomes assessed as compound remaining at 1 uM after 30 mins LC-MS analysis; type: ADME, Microsome; settings: liver microsomes, read-out: Stability
[3] = Metabolic stability in mouse liver microsomes assessed as compound remaining at 1 uM after 30 mins LC-MS analysis; type: ADME, Microsome; settings: liver microsomes, read-out: Stability
[4] = molecular target: Nicotinamide phosphoribosyltransferase (Homo sapiens, UniProt P43490)
Chain of Nicotinamide phosphoribosyltransferase (P43490 whole entry): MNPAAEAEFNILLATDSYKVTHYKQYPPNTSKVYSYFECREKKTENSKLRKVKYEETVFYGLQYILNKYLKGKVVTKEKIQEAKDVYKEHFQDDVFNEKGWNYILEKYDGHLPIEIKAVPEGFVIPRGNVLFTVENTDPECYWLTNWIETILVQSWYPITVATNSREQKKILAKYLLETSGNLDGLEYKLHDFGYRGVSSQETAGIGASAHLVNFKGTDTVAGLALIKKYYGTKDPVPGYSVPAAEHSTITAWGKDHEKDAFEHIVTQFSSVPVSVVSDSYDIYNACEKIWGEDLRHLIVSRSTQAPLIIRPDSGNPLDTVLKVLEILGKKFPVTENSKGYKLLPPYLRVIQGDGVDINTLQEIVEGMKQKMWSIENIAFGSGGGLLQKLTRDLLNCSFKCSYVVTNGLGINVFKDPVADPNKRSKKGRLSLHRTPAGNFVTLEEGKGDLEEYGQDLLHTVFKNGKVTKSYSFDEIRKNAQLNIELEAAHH

SMILES | IC50 [1] [nM] | remaining at 0.5 h, 1 µM [2] [%] | remaining at 0.5 h, 1 µM [3] [%] | IC50 [4] [nM]
O=C(NCc1ccc(S(=O)(=O)N2CCCCC2)cc1)c1cc2ccncc2o1 | 29 | 56 | 0.14 | –
O=C(NCc1ccc(S(=O)(=O)N2CCCCC2)cc1)c1ccc2nccn2c1 | 6 | 57 | 0.28 | 28
O=C(NCc1ccc(S(=O)(=O)c2ccccc2)cc1)c1cc(-c2cccnc2)no1 | > 10000 | 69 | 66 | 41
O=C(NCc1ccc(S(=O)(=O)c2ccccc2)cc1)c1nc2ccncc2s1 | > 10000 | 68 | 26 | 210
O=C(NCc1ccc(S(=O)(=O)N2CCCCC2)cc1)c1ccn2cncc2c1 | > 10000 | 54 | 1 | 1700
O=C(NCc1ccc(S(=O)(=O)c2ccccc2)cc1)c1ccc2nncn2c1 | > 10000 | 96 | 47 | 370
O=C(NCc1ccc(S(=O)(=O)N2CCCCC2)cc1)c1cc2cnccc2o1 | 1500 | 46 | 4.6 | 140
O=C(NCc1ccc(S(=O)(=O)c2ccccc2)cc1)c1nc2cnccc2[nH]1 | 5400 | 73 | 7.3 | –
O=C(NCc1ccc(S(=O)(=O)c2ccccc2)cc1)c1ccc2cncn2c1 | > 10000 | 65 | 1.7 | 1500
O=C(NCc1ccc(S(=O)(=O)c2ccccc2)cc1)c1cn2ccnc2cn1 | > 10000 | 87 | 13 | 150
O=C(NCc1ccc(S(=O)(=O)c2ccccc2)cc1)c1ccc2ncncc2c1 | > 10000 | 24 | 3.7 | 1900
O=C(NCc1ccc(S(=O)(=O)c2ccccc2)cc1)c1cnc2nccn2c1 | 68 | 60 | 30 | –
O=C(NCc1ccc(S(=O)(=O)c2ccc(N3CCOCC3)nc2)cc1)c1cc2ccncc2s1 | 1 | 23 | 23 | 3
O=C(NCc1ccc(S(=O)(=O)c2cccc(F)c2)cc1)c1cc2cnccc2[nH]1 | 11 | 79 | 44 | 5
O=C(NCc1ccc(S(=O)(=O)c2ccccc2)cc1)c1ccc2cnccc2c1 | > 10000 | 31 | 10 | > 10000
O=C(NCCc1ccc(S(=O)(=O)c2ccccc2)cc1)c1cc2cnccc2[nH]1 | 9100 | 64 | 31 | 970
O=C(NCc1ccc(S(=O)(=O)N2CCCCC2)cc1)c1ccc2nc[nH]c2c1 | > 10000 | 53 | 16 | 310
O=C(NCc1ccc(S(=O)(=O)c2ccccc2)cc1)c1cc2ccncc2s1 | 14 | 48 | 21 | 7
O=C(NCc1ccc(S(=O)(=O)N2CCCCC2)cc1)c1cnc2nccn2c1 | 130 | 64 | 0.28 | 3
O=C(NCc1ccc(S(=O)(=O)c2ccccc2)cc1)c1cc2ncccc2s1 | > 10000 | 81 | 1.6 | 400
Cn1c(C(=O)NCc2ccc(S(=O)(=O)c3ccccc3)cc2)cc2cnccc21 | > 10000 | 78 | 34 | –

SMILES | IC50 [1] [nM] | remaining at 0.5 h, 1 µM [2] [%] | remaining at 0.5 h, 1 µM [3] [%] | IC50 [4] [nM]
O=C(NCc1ccc(S(=O)(=O)c2cc(F)cc(F)c2)cc1)c1cc2ccncc2o1 | – | 77 | 12 | –
O=C(NCc1ccc(S(=O)(=O)c2ccccc2)cc1)c1ccc2nccn2c1 | 13 | 77 | 18 | 18
CC(NC(=O)c1cc2cnccc2[nH]1)c1ccc(S(=O)(=O)N2CCCCC2)cc1 (configuration not stated) | > 10000 | 34 | 0.65 | > 10000
O=C(NCc1ccc(S(=O)(=O)c2cccc(C(F)(F)F)c2)cc1)c1ccc2nccn2c1 | 2 | 26 | 17 | 8
O=C(NCc1ccc(S(=O)(=O)c2ccccc2)cc1)c1c[nH]c2ccncc12 | 2100 | > 99 | 45 | –
O=C(NCc1ccc(S(=O)(=O)N2CCCCC2)cc1)c1cc2cnccc2[nH]1 | 10 | 44 | 1.9 | –
O=C(NCc1ccc(S(=O)(=O)c2ccccc2C(F)(F)F)cc1)c1cc2cnccc2[nH]1 | 25 | 52 | 41 | 24
O=C(NCc1ccc(S(=O)(=O)c2cccnc2)cc1)c1cc2cnccc2[nH]1 | 48 | 75 | 20 | –
O=C(NCc1ccc(S(=O)(=O)c2ccc(C(F)(F)F)cc2)cc1)c1cc2cnccc2[nH]1 | 26 | 82 | 87 | 16
O=C(Nc1ccc(S(=O)(=O)N2CCCCC2)cc1)c1cc2cnccc2[nH]1 | > 10000 | – | – | > 10000
O=C(NCc1ccc(S(=O)(=O)N2CCCCC2)cc1)c1cc2ccncc2s1 | 6 | 4.4 | 0.2 | 11
O=C(NCc1ccc(S(=O)(=O)c2ccc(F)cc2)cc1)c1cc2cnccc2[nH]1 | 16 | 91 | 72 | 17
O=C(NCc1ccc(S(=O)(=O)N2CCCCC2)cc1)c1ccn2ccnc2c1 | > 10000 | – | – | 1800
Cc1cccc(S(=O)(=O)c2ccc(CNC(=O)c3cc4cnccc4[nH]3)cc2)c1 | 4 | 49 | 32 | 8
O=C(NCc1ccc(S(=O)(=O)c2cccc(C(F)(F)F)c2)cc1)c1cnc2nccn2c1 | 2 | 41 | 27 | 1
O=C(NCc1ccc(S(=O)(=O)c2ccc(F)c(F)c2)cc1)c1cc2cnccc2[nH]1 | 14 | 100 | 58 | 10
Cc1ccccc1S(=O)(=O)c1ccc(CNC(=O)c2cc3cnccc3[nH]2)cc1 | 13 | 48 | 15 | 12
O=C(NCc1ccc(S(=O)(=O)c2ccccc2)cc1)c1cc(-c2cccnc2)[nH]n1 | > 10000 | 67 | 42 | 43
O=C(NCc1ccc(S(=O)(=O)c2ccccc2)cc1)c1cc2ccncc2o1 | – | 86 | 30 | –
O=C(NCc1ccc(S(=O)(=O)c2ccccc2)cc1)c1cc2cnccc2[nH]1 | – | 75 | 54 | –
